Biological target: T1, recombinant BOD (bilirubin oxidase) derived from Myrothecium verrucaria MT-1 (Albifimbria verrucaria, UniProt Q12737)
T1 construct: made in house; host or cells: Aspergillus sp
T1 sequence (Q12737 39-572): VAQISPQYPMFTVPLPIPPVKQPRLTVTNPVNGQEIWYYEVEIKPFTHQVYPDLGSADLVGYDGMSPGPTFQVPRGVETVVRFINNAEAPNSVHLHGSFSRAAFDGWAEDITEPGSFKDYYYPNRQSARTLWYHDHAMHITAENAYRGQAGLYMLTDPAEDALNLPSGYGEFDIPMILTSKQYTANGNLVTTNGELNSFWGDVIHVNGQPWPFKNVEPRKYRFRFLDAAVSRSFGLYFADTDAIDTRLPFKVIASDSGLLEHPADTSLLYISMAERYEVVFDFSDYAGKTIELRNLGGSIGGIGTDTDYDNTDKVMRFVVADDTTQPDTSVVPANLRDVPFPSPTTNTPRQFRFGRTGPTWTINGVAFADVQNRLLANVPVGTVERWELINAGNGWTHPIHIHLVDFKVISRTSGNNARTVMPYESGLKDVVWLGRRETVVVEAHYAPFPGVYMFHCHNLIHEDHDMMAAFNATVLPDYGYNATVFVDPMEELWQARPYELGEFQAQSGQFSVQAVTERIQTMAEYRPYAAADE
Test: BOD activity after leaving the BOD solution with an activity improving agent or comparative substance at 30° C. in a deoxygenated atmosphere (Test Example 1)
Format: biochemical
Details: relative to Day 0, additive concentration as in Table 1; for Activity (%) Day 47: left 47 days at 30° C.
Procedure: A BOD solution, which contains: a BOD; and the present activity improving agent or a comparative substance, was left in an environment at a temperature of 30° C. in a deoxygenated atmosphere for a certain period of time. After the BOD solution was left as above, improvement of the BOD activity by the present activity improving method was evaluated by measurement of the BOD activity.
In Test Example 1, a BOD gene derived from a Myrothecium verrucaria MT-1 (GenBank accession number: D12579.1) was introduced into an Aspergillus sp., and then a recombinant BOD (hereinafter, also referred to simply as “BOD”) expressed in the Aspergillus sp. was purified by using a well-known technique and then used as the BOD. The BOD gene derived from the Myrothecium verrucaria MT-1 was codon-optimized in accordance with a gene sequence of the Aspergillus sp., and then introduced into the Aspergillus sp. Further, the BOD thus purified was dissolved in a 50 mM glycine-KOH (pH 8.5) buffer so that the concentration of the BOD became 1.0 mg/mL. Then, a resultant solution was used as a BOD enzyme solution.
The enzymatic activity of the BOD was measured as follows. To 1780 μL of a 50 mM potassium phosphate buffer (pH 6.5), 200 μL of a 20 mM ABTS substrate solution was added, so that a mixed solution (1980 μL) was prepared. This mixed solution was incubated for 1 min at 37° C. Thereafter, 20 μL of a solution containing the BOD (specifically, a BOD solution for evaluation, which will be described later) was added to the mixed solution, and a resultant mixed solution (2 mL) was incubated at 37° C. While the mixed solution was incubated, the absorbance of the mixed solution at a wavelength of 436 nm was measured immediately after that addition of the BOD solution for evaluation (at 0 seconds) and thereafter every 20 seconds. On the basis of (i) the absorbance of the mixed solution at a wavelength of 436 nm immediately after the addition of the BOD solution for evaluation and (ii) the absorbance of the mixed solution at a wavelength of 436 nm after a lapse of 1 minute from the addition of the BOD solution for evaluation, calculation was carried out for obtaining an increase rate per minute of the absorbance of the mixed solution at a wavelength of 436 nm after the addition of the BOD solution for evaluation. The BOD activity (unit) in the BOD solution for evaluation was calculated from the increase rate. In the present specification, the amount of enzyme for oxidizing 1 μmol of ABTS per minute was defined as one unit.
A specific test method of Test Example 1 is as follows. To a BOD enzyme solution containing a BOD, one of the above-described present activity improving agents was added, so that a BOD solution (which is the BOD solution according to an embodiment of the present invention) was prepared. Further, one of the above-described comparative substances was added to the BOD enzyme solution, so that another BOD solution was prepared. In addition, still another BOD solution was prepared by adding, to the BOD enzyme solution, distilled water in place of the activity improving agent or the comparative substance, so that a control (denoted as Without additive in Tables 1 to 3) was prepared. The final concentration of the activity improving agent or the comparative substance in each of the above BOD solutions was shown in “mM” or “percentage (%)” (amount (g) of the activity improving agent or the comparative substance relative to 100 mL of the BOD solution) in Table 1.
Thereafter, one of these BOD solutions and a deoxygenating agent (Anaero Pack manufactured by Mitsubishi Gas Chemical Company, Inc.) were included in one container. Then, the container was sealed, so that a BOD container was prepared. The BOD container was left in an environment at a temperature of 30° C. in a deoxygenated atmosphere for 47 days (Table 2) or 14 days (Table 3). […]

SMILES	Activity (%) Day 47 [%]	Activity (%) Day 14 (left 14 days at 30° C.) [%]
O=C1O[C@H]([C@@H](O)CO)C(O)=C1O [L-ascorbic acid]	151	–
O=c1[nH]c(=O)c2[nH]c(=O)[nH]c2[nH]1 [Uric acid, uric acid]	155	156

Reference: patent US20220017877A1, “BILIRUBIN OXIDASE ACTIVITY IMPROVING METHOD, AND BILIRUBIN OXIDASE PRODUCT” (OZEKI CORPORATION, priority 2018, published 2022)
